How the values were obtained:
KB = assay: Growth inhibition of human KB cells after 48 hrs by SRB assay; type: functional, cell-based
A549 = assay: Growth inhibition of human A549 cells after 48 hrs by SRB assay; type: functional, cell-based; settings: A549, 48 h
MKN-45 = assay: Growth inhibition of human MKN45 cells after 48 hrs by SRB assay; type: functional, cell-based; settings: MKN-45, 48 h
Tubulin = Tubulin (Bos taurus, UniProt Q6B856+Q862L2+Q862F3)
Tubulin (Bos taurus) [1] = target: T1, Tubulin (Bos taurus) (UniProt Q6B856+Q862L2+Q862F3); settings: at 1 µM
Tubulin (Bos taurus) [2] = target: T1, Tubulin (Bos taurus); settings: at 5 µM
[3] = target: T2, Polyamine deacetylase HDAC10 (Homo sapiens, UniProt Q969S8); assay: Inhibition of human HDAC10 using RHKKAc as substrate by fluorescence assay
T2 sequence (Q969S8 whole entry): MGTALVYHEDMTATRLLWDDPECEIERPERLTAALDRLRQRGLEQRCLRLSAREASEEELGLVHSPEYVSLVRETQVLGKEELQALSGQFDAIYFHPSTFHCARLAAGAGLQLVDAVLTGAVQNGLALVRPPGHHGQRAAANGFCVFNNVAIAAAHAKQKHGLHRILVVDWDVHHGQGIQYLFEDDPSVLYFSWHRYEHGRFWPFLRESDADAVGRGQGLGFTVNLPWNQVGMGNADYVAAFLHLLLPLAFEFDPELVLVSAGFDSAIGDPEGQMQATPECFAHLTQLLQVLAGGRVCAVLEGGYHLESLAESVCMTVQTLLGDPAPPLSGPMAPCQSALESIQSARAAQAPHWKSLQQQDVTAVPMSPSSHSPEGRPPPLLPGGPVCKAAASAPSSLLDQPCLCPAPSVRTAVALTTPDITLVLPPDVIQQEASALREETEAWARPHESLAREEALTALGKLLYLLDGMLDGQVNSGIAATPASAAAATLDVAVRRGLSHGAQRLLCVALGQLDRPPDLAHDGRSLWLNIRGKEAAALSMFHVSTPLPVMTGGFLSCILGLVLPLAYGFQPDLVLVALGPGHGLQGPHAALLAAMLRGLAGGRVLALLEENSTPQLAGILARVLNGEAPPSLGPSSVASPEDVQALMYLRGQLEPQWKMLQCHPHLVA

Histone deacetylase 4 = Histone deacetylase 4 (Homo sapiens, UniProt P56524); assay: Inhibition of human HDAC4 using fluorogenic p53-derived peptide RHKK(Ac) as substrate by fluorescence assay
Chain of Histone deacetylase 4 (P56524 whole entry): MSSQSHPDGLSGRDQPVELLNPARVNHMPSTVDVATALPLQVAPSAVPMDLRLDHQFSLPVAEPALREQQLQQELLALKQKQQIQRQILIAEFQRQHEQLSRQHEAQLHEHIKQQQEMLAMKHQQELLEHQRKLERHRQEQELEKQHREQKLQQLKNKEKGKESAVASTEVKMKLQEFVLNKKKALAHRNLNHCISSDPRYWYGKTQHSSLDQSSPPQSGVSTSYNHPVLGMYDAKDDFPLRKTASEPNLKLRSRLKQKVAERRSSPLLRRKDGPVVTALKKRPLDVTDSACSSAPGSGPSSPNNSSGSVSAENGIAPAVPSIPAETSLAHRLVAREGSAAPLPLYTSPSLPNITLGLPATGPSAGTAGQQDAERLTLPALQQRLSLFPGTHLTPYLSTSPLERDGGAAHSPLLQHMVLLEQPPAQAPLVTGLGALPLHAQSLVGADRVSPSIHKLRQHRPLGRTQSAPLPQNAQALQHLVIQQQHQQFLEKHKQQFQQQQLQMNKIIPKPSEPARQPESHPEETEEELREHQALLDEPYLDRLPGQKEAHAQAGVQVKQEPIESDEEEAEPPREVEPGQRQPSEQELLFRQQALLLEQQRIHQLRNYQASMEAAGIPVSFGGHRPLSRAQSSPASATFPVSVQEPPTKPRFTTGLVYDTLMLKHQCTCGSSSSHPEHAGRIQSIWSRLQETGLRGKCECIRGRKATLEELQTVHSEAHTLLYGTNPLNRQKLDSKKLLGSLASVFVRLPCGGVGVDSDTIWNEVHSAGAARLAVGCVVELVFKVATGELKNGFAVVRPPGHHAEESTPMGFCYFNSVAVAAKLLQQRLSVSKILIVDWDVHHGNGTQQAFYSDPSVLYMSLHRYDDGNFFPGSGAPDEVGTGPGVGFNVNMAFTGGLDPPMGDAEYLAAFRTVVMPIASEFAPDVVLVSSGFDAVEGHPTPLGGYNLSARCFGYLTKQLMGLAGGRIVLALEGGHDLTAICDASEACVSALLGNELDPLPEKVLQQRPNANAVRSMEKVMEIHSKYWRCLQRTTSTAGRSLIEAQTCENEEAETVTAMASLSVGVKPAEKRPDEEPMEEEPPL

Histone deacetylase 9 = Histone deacetylase 9 (Homo sapiens, UniProt Q9UKV0); assay: Inhibition of human HDAC9 using fluorogenic p53 (379-382) peptide RHKK(Ac) as substrate by fluorescence assay
Chain of Histone deacetylase 9 (Q9UKV0 whole entry): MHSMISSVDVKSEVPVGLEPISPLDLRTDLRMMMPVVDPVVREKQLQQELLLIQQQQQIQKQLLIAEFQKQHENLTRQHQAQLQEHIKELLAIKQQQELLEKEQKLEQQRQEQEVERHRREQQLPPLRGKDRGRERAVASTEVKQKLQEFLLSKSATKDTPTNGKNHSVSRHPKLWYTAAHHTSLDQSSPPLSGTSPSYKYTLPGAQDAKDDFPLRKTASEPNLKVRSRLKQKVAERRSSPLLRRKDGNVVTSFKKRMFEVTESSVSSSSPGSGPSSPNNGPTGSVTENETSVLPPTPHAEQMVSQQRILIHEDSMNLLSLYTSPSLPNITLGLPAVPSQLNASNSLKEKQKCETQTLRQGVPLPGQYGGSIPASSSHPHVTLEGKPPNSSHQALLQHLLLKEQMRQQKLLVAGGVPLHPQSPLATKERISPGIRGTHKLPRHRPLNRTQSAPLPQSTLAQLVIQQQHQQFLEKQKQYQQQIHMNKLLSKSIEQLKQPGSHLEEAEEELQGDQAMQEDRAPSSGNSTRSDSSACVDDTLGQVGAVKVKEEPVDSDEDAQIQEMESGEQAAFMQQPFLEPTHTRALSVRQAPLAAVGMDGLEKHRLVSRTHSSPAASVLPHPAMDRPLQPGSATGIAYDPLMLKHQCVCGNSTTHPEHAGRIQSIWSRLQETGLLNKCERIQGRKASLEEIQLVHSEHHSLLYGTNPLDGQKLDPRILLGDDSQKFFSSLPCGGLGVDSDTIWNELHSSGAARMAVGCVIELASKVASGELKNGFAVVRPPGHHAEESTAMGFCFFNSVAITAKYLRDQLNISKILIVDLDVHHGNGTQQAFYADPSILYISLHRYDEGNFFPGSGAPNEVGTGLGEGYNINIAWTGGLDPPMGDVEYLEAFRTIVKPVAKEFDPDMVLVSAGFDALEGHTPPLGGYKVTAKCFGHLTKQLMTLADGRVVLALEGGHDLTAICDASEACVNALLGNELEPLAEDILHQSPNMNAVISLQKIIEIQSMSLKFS

[4] = Growth inhibition of human KB-VIN10 cells after 48 hrs by SRB assay; type: functional; settings: KB-VIN10, 48 h
[5] = Growth inhibition of human KB-S15 cells after 48 hrs by SRB assay; type: functional; settings: KB-S15, 48 h
[6] = Growth inhibition of human KB-7d cells after 48 hrs by SRB assay; type: functional; settings: KB7D

| IC50 (KB) [nM] | IC50 (A549) [nM] | IC50 (MKN-45) [nM] | IC50 (Tubulin) [nM] | Compound | other results |
| --- | --- | --- | --- | --- | --- |
| 210 | 560 | 460 | 4000 | Nc1ccccc1NC(=O)c1ccc(CNc2cccc3c2N(S(=O)(=O)c2ccc(Cl)cc2)CC3)cc1 |  |
| 260 | 570 | 480 | 3700 | COc1ccc(S(=O)(=O)N2CCc3cccc(NCc4ccc(C(=O)Nc5ccc(N)cc5)cc4)c32)cc1 |  |
| 2200 | 5700 | 3900 | 8500 | COc1ccc(S(=O)(=O)N2CCc3cccc(NCc4cccc(C(=O)Nc5ccccc5N)c4)c32)cc1 |  |
| 1440 | 3900 | 2500 | > 10000 | COc1ccc(S(=O)(=O)n2ccc3ccc(NCc4ccc(C(=O)Nc5ccccc5N)cc4)cc32)cc1 |  |
|  |  |  | 3200 | COc1ccc(S(=O)(=O)Nc2cccnc2Nc2ccc(O)cc2)cc1 [ABT-751] | inhibition (Tubulin (Bos taurus) [1]): 40.2%; inhibition (Tubulin (Bos taurus) [2]): 71.6% |
| 560 | 920 | 880 | 6400 | N#Cc1ccc(S(=O)(=O)N2CCc3cccc(NCc4ccc(C(=O)Nc5ccccc5N)cc4)c32)cc1 |  |
| 200 | 450 | 420 | 2300 | COc1ccc(S(=O)(=O)N2CCc3cccc(NCc4ccc(C(=O)Nc5cccc(N)c5)cc4)c32)cc1 |  |
| 520 |  | 1200 |  | Nc1ccccc1NC(=O)c1ccc(CNC(=O)OCc2cccnc2)cc1 [ENTINOSTAT] | IC50 [3]: Not Active; IC50 (Histone deacetylase 4): Not Active; IC50 (Histone deacetylase 9): Not Active |
| 130 | 640 | 440 | 3700 | COc1ccc(S(=O)(=O)n2ccc3cccc(NCc4ccc(C(=O)Nc5ccccc5N)cc4)c32)cc1 |  |
| 440 | 860 | 780 | 3300 | Nc1ccccc1NC(=O)c1ccc(CNc2cccc3c2N(S(=O)(=O)c2ccc(O)cc2)CC3)cc1 |  |
| 260 | 870 | 780 | 3200 | Nc1ccccc1NC(=O)c1ccc(CNc2cccc3c2N(S(=O)(=O)c2ccccc2)CC3)cc1 |  |
| 120 | 190 | 140 | 2300 | COc1ccc(S(=O)(=O)N2CCc3cccc(Nc4ccc(C(=O)Nc5ccccc5N)cc4)c32)cc1 | IC50 [4]: 114 nM; IC50 [5]: 106 nM; IC50 [6]: 78.3 nM; inhibition (Tubulin (Bos taurus) [1]): 64.3%; inhibition (Tubulin (Bos taurus) [2]): 98.8% |
| 110 | 200 | 130 | 2500 | COc1ccc(S(=O)(=O)N2CCc3cccc(CCc4ccc(C(=O)Nc5ccccc5N)cc4)c32)cc1 |  |
| 540 | 930 | 870 | 3700 | Nc1ccccc1NC(=O)c1ccc(CNc2cccc3c2N(S(=O)(=O)c2ccc(F)cc2)CC3)cc1 |  |
|  | > 10000 |  |  | COc1ccc(S(=O)(=O)N2CCc3cccc(NC(=O)c4ccc(C(=O)Nc5ccccc5N)cc4)c32)cc1 |  |
| 780 | 1100 | 800 | 3500 | COc1cccc(S(=O)(=O)N2CCc3cccc(NCc4ccc(C(=O)Nc5ccccc5N)cc4)c32)c1 |  |
| 2100 | 8900 | 5000 | > 10000 | COc1ccc(S(=O)(=O)N2CCc3cc(NCc4ccc(C(=O)Nc5ccccc5N)cc4)ccc32)cc1 |  |
| 870 | 2400 | 2100 | > 10000 | COc1ccc(S(=O)(=O)N2CCc3ccc(NCc4ccc(C(=O)Nc5ccccc5N)cc4)cc32)cc1 |  |
| 230 | 270 | 200 | 2700 | COc1ccc(S(=O)(=O)N2CCc3cccc(/C=C/c4ccc(C(=O)Nc5ccccc5N)cc4)c32)cc1 |  |
| 8700 | 10500 | 10000 | > 10000 | COc1ccc(S(=O)(=O)N2CCc3cccc(NCc4ccc(C(=O)Nc5ccccc5O)cc4)c32)cc1 |  |
| 1400 | 2700 | 2300 | > 10000 | COc1ccc(S(=O)(=O)N2CCc3cccc(NCc4ccc(C(=O)Nc5ccccc5N)cc4)c32)cc1OC |  |
